Test results reported in article PMC7195332 (Bioorganic & Medicinal Chemistry Letters, 2019).

Key:
[1] = target: CypD (30-207 aa, human recombinant) (Homo sapiens, UniProt P30405); assay: Cyclophilin D biochemical FP assay; assay type: binding; conditions: for Biochemical CypD FP assay LE: ligand binding efficiency based on biochemical FP IC50s
[2] = target: Recombinant human Cyclophilin D protein (amino acids 44-207, K175I) (Homo sapiens, UniProt P30405, K175I); assay: CypD SPR binding assay; conditions: for CypD LE (ligand binding efficiency based on the SPR KDs): fragment hits; for SPR binding CypD LE: ligand binding efficiency based on SPR KDs
Chain of Recombinant human Cyclophilin D protein (amino acids 44-207, K175I) (P30405 44-207 K175I): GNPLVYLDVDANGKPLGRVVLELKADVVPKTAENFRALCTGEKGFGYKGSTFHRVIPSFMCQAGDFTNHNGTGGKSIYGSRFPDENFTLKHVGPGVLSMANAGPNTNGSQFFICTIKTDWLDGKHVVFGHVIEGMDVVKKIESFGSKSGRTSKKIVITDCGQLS

Chain of CypD (30-207 aa, human recombinant) (P30405 30-207): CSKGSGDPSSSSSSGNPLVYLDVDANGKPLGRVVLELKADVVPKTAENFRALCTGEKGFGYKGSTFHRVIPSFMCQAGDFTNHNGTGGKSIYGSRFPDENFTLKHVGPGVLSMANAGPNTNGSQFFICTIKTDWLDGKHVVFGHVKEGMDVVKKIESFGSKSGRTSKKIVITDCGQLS

| Compound | IC50 [1] | SPR binding CypD LE [2] | also measured |
| --- | --- | --- | --- |
| CSc1ccccc1[C@H]1CCCN1C(=O)CNC(=O)CCc1ccc2c(c1)[C@@H]1C[C@H](N2)[C@H](O)CO1 [compound 19] | 54 µM | – | – |
| CCn1nnc(NC(=O)c2ccccc2)n1 [compound 6] | – | – | CypD LE (ligand binding efficiency based on the SPR KDs) [2]: 0.21 |
| CSc1ccccc1[C@@H]1CCCN1C(=O)C(=O)NCc1ccc2c(c1)[C@H]1C[C@@H](N2)[C@H](O)CO1 [compound 32] | > 30 µM | – | – |
| CCN1Cc2cc(NC(=O)NCC(=O)N3CCC[C@@H]3c3ccccc3SC)ccc2NCCC1=O [compound 21] | > 100 µM | 0.13 | – |
| CCN1Cc2cc(CNC(=O)NCC(=O)N3CCC[C@@H]3c3ccccc3SC)ccc2NCCC1=O [compound 20] | 0.19 µM | 0.25 | – |
| CCN1Cc2cc3c(cc2NCCC1=O)OCO3 [compound 4] | – | – | CypD LE (ligand binding efficiency based on the SPR KDs) [2]: 0.16 |
| CCN1Cc2cc(CCC(=O)NCC(=O)N3CCC[C@@H]3c3ccccc3SC)ccc2NCCC1=O [compound 22] | 4.1 µM | 0.21 | Biochemical CypD FP assay LE [1]: 0.21 |
| CSc1ccccc1[C@H]1CCCN1C(=O)CNC(=O)NCc1ccc(N)cc1 [compound 2, reference compound] | 0.75 µM | – | Kd [2]: 0.23 µM |
| CSc1ccccc1[C@H]1CCCN1C(=O)CN(C)C(=O)NCc1ccc2c(c1)[C@H]1C[C@@H](N2)[C@H](O)CO1 [compound 18] | 10 µM | – | – |
| O=C(NCc1ccc2c(c1)[C@@H]1C[C@H](N2)[C@H](O)CO1)C(=O)N1CCCC1 [compound 30] | – | 0.19 | Biochemical CypD FP assay LE [1]: 0.16 |
| O=C(CN1C(=O)C2C3CCC(C3)C2C1=O)NCc1ccc2c(c1)CCCN2 (stereo not drawn) [compound 38] | – | – | potency improvement compared with 36 [1]: 2 fold |
| Nc1ccc(CCNC(=O)CN2C(=O)C3C4CCC(C4)C3C2=O)cc1 (stereo not drawn) [compound 37] | 490 µM | – | Biochemical CypD FP assay LE [1]: 0.18 |
| O[C@@H]1CO[C@@H]2C[C@H]1Nc1ccc(F)cc12 [compound 3] | – | – | CypD LE (ligand binding efficiency based on the SPR KDs) [2]: 0.2 |
| CSc1ccccc1[C@H]1CCCN1C(=O)C(=O)NCc1ccc2c(c1)[C@H]1C[C@@H](N2)[C@H](O)CO1 [compound 31] | > 100 µM | 0.16 | – |
| O=C(NCc1ccccn1)C(=O)NC1CCCC1 [compound 8] | – | – | CypD LE (ligand binding efficiency based on the SPR KDs) [2]: 0.22 |
| O=C(CN1C(=O)[C@@H]2[C@H]3CC[C@H](C3)[C@@H]2C1=O)NCc1ccc2c(c1)[C@H]1C[C@@H](N2)[C@H](O)CO1 [compound 40, 2-(exo-3,5-Dioxo-4-aza-tricyclo[5.2.1.02,6]dec-4-yl)-N-((1R,9R,10S)-10-hydroxy-12-oxa-8-aza-tricyclo[7.3.1.02,7]trideca-2(7),3,5-trien-4-ylmethyl)-acetamide] | 0.735 µM | 0.25 | Biochemical CypD FP assay LE [1]: 0.27 |

More lines, main results first:

| IC50 [1] | SPR binding CypD LE [2] | Compound | also measured |
| --- | --- | --- | --- |
| 1.7 µM | 0.26 | O=C(CN1C(=O)[C@@H]2[C@@H]3CC[C@@H](C3)[C@@H]2C1=O)NCc1ccc2c(c1)[C@H]1C[C@@H](N2)[C@H](O)CO1 [compound 39] | Biochemical CypD FP assay LE [1]: 0.26 |
| > 100 µM | – | O=C(NCc1ccc2c(c1)[C@H]1C[C@@H](N2)[C@H](O)CO1)C(=O)N1CCCC1 [compound 29] | Kd [2]: > 1500 µM |
| 870 µM | – | O=C(NCc1ccc2c(c1)[C@@H]1C[C@H](N2)[C@H](O)CO1)C(=O)NC1CCCC1 [compound 30] | Kd [2]: 217 µM |
| 80 µM | – | CCN1Cc2cc(CNC(=O)CN3C(=O)[C@@H]4[C@H]5CC[C@H](C5)[C@@H]4C3=O)ccc2NCCC1=O [compound 34] | Biochemical CypD FP assay LE [1]: 0.18; Kd [2]: 51 µM |
| > 1000 µM | – | CCN1Cc2cc(NC(=O)CN3C(=O)C4C(C3=O)[C@H]3CC[C@@H]4C3)ccc2NCCC1=O (stereo partly drawn) [compound 35] | – |
| > 100 µM | 0.12 | CCN1Cc2cc(CCC(=O)NCCC(=O)N3CCC[C@@H]3c3ccccc3SC)ccc2NCCC1=O [compound 23] | – |
